Data: patent US12123813B2, “Polymer stabilization of chromogen solutions” (Ventana Medical Systems, Inc., priority 2012, dated 2024)
Counter-ions that a name gives are not always drawn.

Assays:
[1] = Water solubility of DAB-polymer complex in chromogen solution; format: physicochemical
Excerpt: Sulfate and sulfonate polymers are believed to form a DAB-polymer salt complex where the hydrophilic polymer backbone helps maintain water solubility.

[2] = Polymer screening: DAB sulfate precipitation after KHSO4 addition (visual); format: physicochemical; conditions: additive in DAB chromogen solution
Description: One embodiment of a DAB base solution comprises DAB chromogen, one or more enhancers, and a stabilizer. […] Exemplary base solutions comprise 5.5 mM DAB, 10 mM imidazole, 10 mM 2-hydroxypyridine, and 1 mM sodium metabisulfite, with a pH of 2.5±0.1. In one embodiment, these compositions were tested using KHSO4 concentrations ranging from 0 to about 10 mM; more typically 0, 1.37, 2.75 and 8.0 mM, with DAB sulfate precipitation being induced at 4° C. overnight.
Polymers were screened for their impact on DAB sulfate precipitation formation by combining an enhanced DAB base solution containing a set amount of the polymer with select molar ratios of potassium hydrogen sulfate, KHSO4, relative to DAB. The enhanced DAB base solution used comprised 5.5 mM DAB·4HCl, 10 mM imidazole, 10 mM 2-hydroxypyridine, 1 mM sodium metabisulfite and 0.05% w/v Brij 35 at pH=2.3±0.1. The potassium hydrogen sulfate concentrations screened were 2.75 and 8.0 mM. […] Solutions were monitored for physical changes (i.e. color or precipitation).
Candidate polymers were screened for their impact on DAB sulfate precipitation formation by combining an enhanced DAB base solution containing a set amount of the polymer with select molar ratios of potassium hydrogen sulfate, KHSO4, relative to DAB. […] Solutions were monitored for physical changes (i.e. color or precipitation).

NCCOS(=O)(=O)O [2-aminoethylhydrogen sulfate]
formation of water soluble DAB-polymer complex (in words) [1]: did not form water soluble DAB complexes

CC(O)CO (centres unmarked) [1,2-propanediol]
inhibition of DAB sulfate precipitation (in words) [2]: failed to inhibit DAB sulfate precipitation
